Results as given in patent US8182854B2, “Coffee drink composition” (Kao Corporation, priority 2004, dated 2012).
Entries after “also recorded” stand apart in the source; their conditions may differ.

Tested on: hydrogen peroxide in urine
Test: Amount of hydrogen peroxide in rat urine after forced p.o. administration (FOX assay)
Format: in vivo, SD rats
Method: (c) The coffees obtained above in (a) and (b) were each forcibly administered p.o. (10 mL/kg) to six-week-old male SD rats (n=4). Three hours after the administration, urine was collected and the amount of hydrogen peroxide in their urine was measured. The amount of hydrogen peroxide in urine was measured by FOX (ferrous ion oxidation-xylenol orange) assay. (b) To 7-week-old male SD rats (n=4), 2.4 g/kg of instant coffee (Nescafe decaffeinated) (1.6 mg/kg in terms of hydroxyhydroquinone) and 1.6 mg/kg of hydroxyhydroquinone were forcibly administered p.o, respectively. Prior to administration and three hours and six hours after administration, urine was collected from them and the amount of hydrogen peroxide in urine was measured as in Example 2. To seven-week-old male SD rats (n=3), hydroxyhydroquinone (0.1, 0.3, 1 and 3 mg/kg, respectively) was forcibly administered p.o. Prior to administration and three and six hours after administration, urine was collected from them and the amount of hydrogen peroxide in the urine was determined as in Example 2. (c) The coffees obtained above in (a) and (b) (each, 10 mL/kg) were forcibly administered p.o. to seven-week-old male SD rats (n=8). Prior to administration and three and six hours after the administration, urine was collected from them and the amount of hydrogen peroxide in the urine was measured as in Example 2.

amount of hydrogen peroxide in urine (Example 3, FIG. 3, 7-week-old male SD rats, p.o., 2.4 g/kg instant coffee or 1.6 mg/kg hydroxyhydroquinone, three hours after administration): significant increase
dose from which the amount of hydrogen peroxide in the body increases (Example 4, FIG. 4, seven-week-old male SD rats, p.o.): ≥ 0.3 mg/kg
Compound: Oc1ccc(O)c(O)c1 [hydroxyhydroquinone]
amount of hydrogen peroxide in the body (urine) (Example 4, FIG. 4, seven-week-old male SD rats, hydroxyhydroquinone 0.1, 0.3, 1 and 3 mg/kg p.o., urine three and six hours after administration): increases the generation amount of hydrogen peroxide in the body; also recorded: increases dose-dependently
